This is an account of results in ChEMBL document CHEMBL3044761, “Lethal Activity of a Trehalase Inhibitor, Validoxylamine A, against Mamestra brassicae and Spodoptera litura” (J Pestic Sci, 1994).

Holding throughout (format): functional
Experiment [1] concerns Spodoptera litura. The experiment in a line: Insecticidal activity against last-instar Spodoptera litura larvae assessed as larval pupal intermediate injected at 0.4 ug/larvae (reference value: […]).
Experiment [2] deals with Spodoptera litura. The experiment in a line: Insecticidal activity against last-instar Spodoptera litura larvae assessed as partial pupation injected at 0.4 ug/larvae (reference value: […]).
For experiment [3], the system named is Spodoptera litura. The experiment in a line: Insecticidal activity against last-instar Spodoptera litura larvae assessed as partial pupation injected at 10 ug/larvae (reference value: […]).
The test system of experiment [4] is Spodoptera litura. The experiment in a line: Insecticidal activity against last-instar Spodoptera litura larvae assessed as wing pad separation injected at 50 ug/larvae (reference value: 100%).
Experiment [5] deals with Spodoptera litura. The experiment in a line: Insecticidal activity against last-instar Spodoptera litura larvae assessed as normal pupae injected at 0.4 ug/larvae (reference value: 100%).
The test system of experiment [6] is Spodoptera litura. The experiment is described as follows: Insecticidal activity against last-instar Spodoptera litura larvae assessed as normal pupae injected at 10 ug/larvae (reference value: 100%).
Experiment [7] deals with Spodoptera litura. The experiment is described as follows: Insecticidal activity against last-instar Spodoptera litura larvae assessed as larval pupal intermediate injected at 2 ug/larvae (reference value: […]).
For experiment [8], the system named is Mamestra brassicae. The experiment in a line: Insecticidal activity against last-instar Mamestra brassicae larvae assessed as wing pad separation injected at 50 ug/larvae (reference value: 0%).
Experiment [9] has as its system Spodoptera litura. The experiment in a line: Insecticidal activity against last-instar Spodoptera litura larvae assessed as larval pupal intermediate injected at 50 ug/larvae (reference value: […]).
Experiment [10] relates to Mamestra brassicae. The experiment in a line: Insecticidal activity against last-instar Mamestra brassicae larvae assessed as partial pupation at 50 ug/larvae oral administration (reference value: 10%).
The subject of experiment [11] is Spodoptera litura. The experiment in a line: Insecticidal activity against last-instar Spodoptera litura larvae assessed as larval pupal intermediate at 50 ug/larvae topical application (reference value: […]).

As to `OCC1=C[C@H](N[C@H]2C[C@H](CO)[C@@H](O)[C@H](O)[C@H]2O)[C@H](O)[C@@H](O)[C@@H]1O` [VALIDOXYLAMINE A], the Activity is 0% in experiment [1]; 10% in experiment [2]; 40% in [3]; 13% in experiment [4]; 85% in [5]; 20% in experiment [6]. Further, the Activity came out at 15% in [7]; 0% in [8]; 58% in experiment [9]; 0% in experiment [10]; 5% in experiment [11].
